Source: patent publication US20110034472A1, “Novel Compounds for Treatment of Cancer and Disorders Associated With Angiogenesis Function” (UNIVERSITY OF SOUTHERN CALIFORNIA, priority 2004, published 2011)

test system: HEY ovarian cancer cells; experiment: MTT cytotoxicity assay, HEY; type: cell-based, human; conditions: HEY ovarian cancer cells; read-out: 50% Cytotoxic concentration (IC50)
Experimental: The sensitivity of a panel of seven human cancer cell lines to SC144 was assessed by MTT-assay. […] The sensitivity towards SC144 was time- and dose-dependent.
Cytotoxicity was assessed by a 3-(4,5-dimethylthiazol-2-yl)-2,5-diphenyltetrazolium bromide assay as previously described (Carmichael et al. (1987) Cancer Res. 47:936-42). Briefly, cells were seeded in 96-well microtiter plates (PC3 and DU145 at 5,000 cells/well and LNCaP at 10,000 cells/well; breast and ovarian cells at 4,000 cells/well) and allowed to attach. Cells were subsequently treated with a continuous exposure to the corresponding drug for 72 hours. A 3-(4,5-dimethylthiazol-2-yl)-2,5-diphenyltetrazolium bromide solution (at a final concentration of 0.5 mg/mL) was added to each well and cells were incubated for 4 hours at 37° C. After removal of the medium, DMSO was added and the absorbance was read at 570 nm. All assays were done in triplicate. The IC50 was then determined for each drug from a plot of log(drug concentration) versus percentage of cell kill.

Compound	IC50 [µM]
CCCn1c(=O)c(C(=O)NNC(=O)CC(=O)OCC)c(O)c2ccccc21 [SC202]	1
COCc1c(C(=O)NNC(=O)c2ccccc2F)nnn1-c1nonc1N [SC204]	1
CCCn1c(=O)c(C(=O)NNC(=O)c2ccc(C)cc2)c(O)c2ccccc21 [SC206]	1
O=C(COc1ccc2ccccc2c1)NNC(=O)c1cc2ccccc2cc1O [SC210]	1
CSc1nc(NNC(=O)c2ccco2)c2c3c(sc2n1)COC(C)(C)C3 [SC212]	1
CCn1c(=O)c(C(=O)NNC(=O)c2ccccc2[N+](=O)[O-])c(O)c2ccccc21 [SC214]	1
Cc1ccc(-n2c(SCC(=O)NNC(=O)c3ccccc3O)nnc2-c2ccccc2O)cc1 [SC245]	1
O=C(CSc1nnc(-c2ccccc2O)n1Cc1ccccc1)NNC(=O)c1ccccc1O [SC246]	1

same assay, conditions: Homo sapiens, read-out: 50% Cytotoxic concentration (IC50)

Compound	IC50 [µM]
Cc1cccc(C(O)(C(=O)NNC(=O)/C(O)=C/C(=O)c2ccccc2)c2cccc(C)c2)c1 [SC230]	3

same assay, conditions: Homo sapiens; HEY ovarian cancer cells; read-out: 50% Cytotoxic concentration (IC50)

Compound	IC50 [µM]
O=C(CSc1nc2ccccc2c(=O)n1CC1CCCO1)NNC(=O)c1ccccc1O (centres unmarked)	2
CCCn1c(=O)c(C(=O)NNC(=O)c2ccccc2)c(O)c2ccccc21 [SC201]	2
CCn1c(=O)c(C(=O)NNC(=O)Cc2ccccc2)c(O)c2ccccc21 [SC203]	6
CCn1c(=O)c(C(=O)NNC(=O)c2ccc(C)cc2)c(O)c2ccccc21 [SC205]	6
CCn1c(=O)c(C(=O)NNC(=O)c2cccc(C)c2)c(O)c2ccccc21 [SC207]	6
O=C(CSc1nnc(-c2ccccc2O)o1)NNC(=O)Cc1ccccc1 [SC208]	4
CC1CCN(S(=O)(=O)c2ccc(C(=O)NNC(=O)C3CC3)cc2)CC1 [SC209]	8
CCc1cc2ccccc2nc1SCC(=O)NNC(=O)c1ccccc1 [SC211]	10
Cc1cccc(C(=O)NNC(=O)CSc2nc3ccccc3cc2C)c1 [SC213]	12
Cc1cc(C)cc(OCC(=O)NNC(=O)c2cc3ccccc3oc2=O)c1 [SC215]	12
CCn1c(=O)c(C(=O)NNC(=O)c2ccc([N+](=O)[O-])cc2)c(O)c2ccccc21 [SC216]	5
C=C(C)CNC(=S)NNC(=O)CCn1c2ccccc2c2ccccc21 [SC217]	4
CCn1c(=O)c(C(=O)NNC(=O)c2cccc([N+](=O)[O-])c2)c(O)c2ccccc21 [SC218]	4
O=C(NNC(=O)c1c(O)c2ccccc2[nH]c1=O)c1ccccc1[N+](=O)[O-] [SC219]	2
CC1=C(C)C2c3nnc(SCC(=O)NNC(=O)c4ccco4)n3C=NC2S1 (centres unmarked) [SC220]	4
O=C(NNC(=O)c1c(O)c2ccccc2[nH]c1=O)c1cccc([N+](=O)[O-])c1 [SC221]	4
O=C(CSc1nc2ccccc2cc1Cc1ccccc1)NNC(=O)c1ccco1 [SC222]	8
COc1ccc(C(=O)NNC(=O)c2cc3ccccc3oc2=O)cc1OC [SC223]	4
O=C(CSc1nc(C2CC2)nc2sc3c(c12)CCCC3)NNC(=O)c1ccco1 [SC224]	4
CCn1c(=O)c(C(=O)NNC(=O)c2ccccc2F)c(O)c2ccccc21 [SC225]	2
COc1ccc(C(=O)NNC(=O)CSc2ncnc3sc4c(c23)CCCC4)cc1 [SC226]	5
CCc1cc2ccc(C)cc2nc1SCC(=O)NNC(=O)c1ccco1 [SC227]	6
CCC(=O)NNc1nc2c(c(=O)n1Cc1ccccc1)C1(CCCC1)Cc1ccccc1-2 [SC228]	6

Compound	IC50 [µM]
CC1(C)Cc2c(sc3nc(NNC(=O)c4ccccc4)[nH]c(=O)c23)CO1 [SC229]	8
CCCCCCCC(=O)NNC(=O)c1c(O)c2ccccc2n(CC)c1=O [SC231]	3
CC1=C(C)C2c3nnc(SCC(=O)NNC(=O)c4ccco4)n3C(C(C)C)=NC2S1 (centres unmarked) [SC232]	6
CCCCCCCCC(=O)NNC(=O)c1c(O)c2ccccc2n(C)c1=O [SC233]	5
Cc1cccc(C(=O)NNC(=O)CSc2nc(-c3ccccc3)nc3ccc(F)cc23)c1 [SC234]	8
CCCCCCC(=O)NNC(=O)c1c(O)c2ccccc2n(CCC)c1=O [SC235]	7
CCCCCCCCCC(=O)NNC(=O)c1c(O)c2ccccc2[nH]c1=O [SC237]	7
O=C(NNC(=O)c1cc2ccccc2oc1=O)c1ccc(S(=O)(=O)N2CCCCC2)cc1 [SC238]	3
O=C(NNC(=O)c1cc2ccccc2oc1=O)c1ccc(S(=O)(=O)N2CCOCC2)cc1 [SC239]	3
Cc1ccc(-n2c(SCC(=O)NNC(=O)c3ccccc3O)nnc2-c2ccccc2)cc1 [SC240]	5
O=C(CSc1nnc(-c2ccccc2)n1Cc1ccccc1)NNC(=O)c1ccccc1O [SC241]	5
COc1ccc2nc(C)cc(SCC(=O)NNC(=O)COc3cccc4ccccc34)c2c1 [SC242]	5
Cc1ccc(C(=O)n2nnc3c(NNC(=O)COc4ccc(F)cc4)nc(C4CC4)nc32)cc1 [SC243]	6
O=C(CSC1=NNC2C3=C(N=C(C4CC4)N12)S1=C(CCCC1)C3)NNC(=O)C1C=CC=CO1 (centres unmarked) [SC244]	15
O=C(CSc1nnc2c3c4c(sc3ncn12)CCCC4)NNC(=O)c1ccco1 [SC247]	14
O=C(CSc1nnc(Cc2ccccc2)n1-c1cccc(Cl)c1)NNC(=O)c1ccccc1O [SC248]	2
Cc1ccc(-n2c(SCC(=O)NNC(=O)Cc3ccccc3)nc3sc4c(c3c2=O)CCCC4)cc1 [SC249]	2
Cc1ccc(C(=O)NNC(=O)CSc2nnc3c4c5c(sc4nc(C4CC4)n23)CCCC5)cc1 [SC250]	2
O=C(NNC(=O)c1cccs1)c1ccco1 [SC251]	15
O=C(NNC(=O)c1cccs1)c1ccccn1 [SC252]	16
CCn1c(NNC=O)nc2c1c(=O)[nH]c(=O)n2C [SC253]	12
Cc1occc1C(=O)NNC(=O)c1ccccc1F [SC254]	17
O=C(NNC(=O)c1ccccc1O)c1cccs1 [SC255]	14

Compound	IC50 [µM]
CCC(=O)NNC(=O)c1c(O)c2ccccc2[nH]c1=O [SC256]	3
O=C(NNC(=O)c1cccs1)c1ccc(O)c(O)c1 [SC257]	2
O=C(/C=C/NNC(=O)c1ccccc1O)c1ccccc1 [SC258]	2
O=C(O)CCCC(=O)NNC(=O)c1ccccc1Cl [SC259]	18
COc1ccccc1C(=O)NNC(=O)c1ccccc1O [SC260]	10
O=C(NNC(=O)c1cccc2ccccc12)c1cccs1 [SC261]	11
O=C(NNC(=O)c1cccs1)c1ccc2ccccc2c1 [SC262]	11
O=C(O)/C=C/C(=O)NNC(=O)c1cc(-c2ccccc2)[nH]n1 [SC263]	5
O=C(NNC1=CS(=O)(=O)c2ccccc21)c1ccccc1 [SC264]	5
O=C(NNC1=NS(=O)(=O)c2ccccc21)c1ccncc1 [SC265]	5
O=C(NNC(=O)c1cc2ccccc2oc1=O)c1ccncc1 [SC266]	7
O=C(NNC(=O)c1c(O)c2ccccc2[nH]c1=O)c1ccccc1 [SC268]	10
O=C(CCc1ccccc1)NNC(=O)c1ccc2ccccc2c1O [SC270]	5
O=C(COc1ccc2ccccc2c1)NNC(=O)c1ccccc1O [SC271]	6
COc1cccc(C(=O)NNC(=O)c2ccc3ccccc3c2O)c1 [SC272]	7
COc1ccccc1C(=O)NNC(=O)c1ccc2ccccc2c1O [SC273]	11
COc1ccccc1C(=O)NNC(=O)c1cc2ccccc2cc1O [SC274]	11
COc1ccc(C(=O)NNC(=O)c2ccc3ccccc3c2O)cc1 [SC275]	12
COc1ccc(C(=O)NNC(=O)c2cc3ccccc3cc2O)cc1 [SC276]	13
O=C(Cc1ccccc1)NNC(=O)c1c(O)c2ccccc2[nH]c1=O [SC277]	14
Cc1ccc(C(=O)NNC(=O)c2c(O)c3ccccc3[nH]c2=O)cc1 [SC278]	13
O=C(NNC(=O)c1c(O)c2ccccc2[nH]c1=O)c1ccccc1F [SC279]	6
O=C(CCl)NNc1nc(-c2ccccc2)c2cc(Cl)ccc2n1 [SC280]	6

test system: MDA-MB-435 cells; experiment: MTT assay, continuous drug exposure for 48 hours (Table 3); type: cell-based, human; conditions: not given

Compound	CC50 [µM]	CC80 [µM]
N.N.[Cl][Pt][Cl] [Cisplatin]	39 ± 1.41	71 ± 1.4

same assay, conditions: Homo sapiens, MDA-MB-435

Compound	CC50 [µM]
COc1cc([C@@H]2c3cc4c(cc3[C@@H](O[C@@H]3O[C@@H]5CO[C@@H](C)O[C@H]5[C@H](O)[C@H]3O)[C@H]3COC(=O)[C@H]23)OCO4)cc(OC)c1O [Etoposide]	52.5 ± 3.5
O=C1c2c(O)ccc(O)c2C(=O)c2c(NCCNCCO)ccc(NCCNCCO)c21 [Mitoxantrone]	4.5 ± 1.4
CC(=O)O[C@H]1C(=O)[C@@]2(C)[C@H]([C@H](OC(=O)c3ccccc3)[C@]3(O)C[C@H](OC(=O)[C@H](O)[C@@H](NC(=O)c4ccccc4)c4ccccc4)C(C)=C1C3(C)C)[C@]1(OC(C)=O)CO[C@@H]1C[C@@H]2O [Taxol]	0.04 ± 0.003

same assay, conditions: Homo sapiens, MDA-MB-435, read-out: CC80

Compound	IC80 [µM]
COc1cc([C@@H]2c3cc4c(cc3[C@@H](O[C@@H]3O[C@@H]5CO[C@@H](C)O[C@H]5[C@H](O)[C@H]3O)[C@H]3COC(=O)[C@H]23)OCO4)cc(OC)c1O [Etoposide]	300 ± 106
O=C1c2c(O)ccc(O)c2C(=O)c2c(NCCNCCO)ccc(NCCNCCO)c21 [Mitoxantrone]	7.3 ± 0.35
CC(=O)O[C@H]1C(=O)[C@@]2(C)[C@H]([C@H](OC(=O)c3ccccc3)[C@]3(O)C[C@H](OC(=O)[C@H](O)[C@@H](NC(=O)c4ccccc4)c4ccccc4)C(C)=C1C3(C)C)[C@]1(OC(C)=O)CO[C@@H]1C[C@@H]2O [Taxol]	0.07 ± 0.01
